Measured values published in patent publication US10329302B2, “Bicyclic-fused heteroaryl or aryl compounds” (Pfizer Inc., priority 2014, dated 2019).
Where two headings read alike, the source gives them in different places.

What was measured:
[1] = biological target: human IRAK4 FL (Full Length) (Homo sapiens (Human), UniProt Q9NWZ3); assay: IRAK4 Enzymatic DELFIA Assay, Protocol A; format: biochemical
[2] = system: R848-induced TNFα production by human peripheral blood mononuclear cells (PBMCs); assay: R848 Induced TNFα in Human PBMC Assay; format: cell-based; conditions: Homo sapiens, PBMC, 3 h, read-out: R848-induced TNFa PBMC IC50 (nM)
[3] = human IRAK4 FL, 0.6 mM ATP (KM), read-out: IRAK4 DELFIA Protocol A IC50

Sequence of human IRAK4 FL (Full Length) (Q9NWZ3 whole entry): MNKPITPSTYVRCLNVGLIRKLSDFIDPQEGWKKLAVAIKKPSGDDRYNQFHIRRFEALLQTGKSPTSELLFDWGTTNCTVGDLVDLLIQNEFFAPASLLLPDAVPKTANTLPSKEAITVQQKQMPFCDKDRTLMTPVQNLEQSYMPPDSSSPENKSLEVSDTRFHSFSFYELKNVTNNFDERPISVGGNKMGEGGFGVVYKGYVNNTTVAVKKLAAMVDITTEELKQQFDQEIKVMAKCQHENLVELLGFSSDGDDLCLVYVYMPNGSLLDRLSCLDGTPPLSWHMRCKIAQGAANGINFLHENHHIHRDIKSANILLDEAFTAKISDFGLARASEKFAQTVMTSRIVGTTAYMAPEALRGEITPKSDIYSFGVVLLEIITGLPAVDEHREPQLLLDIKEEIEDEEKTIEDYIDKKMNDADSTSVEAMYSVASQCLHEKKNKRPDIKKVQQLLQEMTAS

SMILES: CC(C)Oc1cc2c(OCC3(CO)CCC(=O)N3)nccc2cc1C(N)=O (centres unmarked) [Example 147, 1-{[2-(hydroxymethyl)-5-oxopyrrolidin-2-yl]methoxy}-7-(propan-2-yloxy)isoquinoline-6-carboxamide]
- IC50 [1]: 59 nM
- IC50 [2]: 1160 nM

SMILES: CC(C)Oc1cc2c(OC[C@@H]3C[C@H](O)C(=O)N3)nccc2cc1C(N)=O [Example 150, 1-{[(2S,4S)-4-hydroxy-5-oxopyrrolidin-2-yl]methoxy}-7-(propan-2-yloxy)isoquinoline-6-carboxamide]
- IC50 [1, 3]: 41 nM
- IC50 [2]: 864 nM

SMILES: CC(C)Oc1cc2c(OC[C@@H]3C[C@@H](CC(F)(F)F)C(=O)N3)nccc2cc1C(N)=O [Example 151, 1-{[(2S,4S)-5-oxo-4-(2,2,2-trifluoroethyl)pyrrolidin-2-yl]methoxy}-7-(propan-2-yloxy)isoquinoline-6-carboxamide]
- IC50 [1, 3]: 1.2 nM
- IC50 [2]: 25 nM

SMILES: CC(C)Oc1cc2c(OC[C@@H]3C[C@H](CC(F)(F)F)C(=O)N3)nccc2cc1C(N)=O [Example 152, 1-{[(2S,4R)-5-oxo-4-(2,2,2-trifluoroethyl)pyrrolidin-2-yl]methoxy}-7-(propan-2-yloxy)isoquinoline-6-carboxamide]
- IC50 [1, 3]: 6.7 nM
- IC50 [2]: 139 nM

SMILES: CC(C)Oc1cc2c(OC[C@@H]3C[C@](F)(CO)C(=O)N3)nccc2cc1C(N)=O [Example 163, 1-{[(2S,4S)-4-fluoro-4-(hydroxymethyl)-5-oxopyrrolidin-2-yl]methoxy}-7-(propan-2-yloxy)isoquinoline-6-carboxamide]
- IC50 [1, 3]: 1400 nM
- IC50 [2]: 7450 nM

SMILES: CC(C)Oc1cc2c(OC[C@@H]3C[C@@](F)(CO)C(=O)N3)nccc2cc1C(N)=O [Example 164, 1-{[(2S,4R)-4-fluoro-4-(hydroxymethyl)-5-oxopyrrolidin-2-yl]methoxy}-7-(propan-2-yloxy)isoquinoline-6-carboxamide]
- IC50 [1, 3]: 1.7 nM
- IC50 [2]: 116 nM

SMILES: CC(C)Oc1cc2c(OC[C@@H]3C[C@@H](CO)C(=O)N3)nccc2cc1C(N)=O [Example 166, 1-{[(2S,4S)-4-(hydroxymethyl)-5-oxopyrrolidin-2-yl]methoxy}-7-(propan-2-yloxy)isoquinoline-6-carboxamide]
- IC50 [1, 3]: 4.3 nM
- IC50 [2]: 389 nM

SMILES: CC(C)Oc1cc2c(OC[C@@H]3CCC(=O)N3)ncc(F)c2cc1C(N)=O [Example 168, 4-fluoro-1-{[(2S)-5-oxopyrrolidin-2-yl]methoxy}-7-(propan-2-yloxy)isoquinoline-6-carboxamide]
- IC50 [1, 3]: 6.6 nM
- IC50 [2]: 1460 nM

SMILES: CC(C)Oc1cc2c(OC[C@H]3NC(=O)[C@H](F)[C@H]3C)nccc2cc1C(N)=O [Example 170, 1-{[(2S,3S,4R)-4-fluoro-3-methyl-5-oxopyrrolidin-2-yl]methoxy}-7-(propan-2-yloxy)isoquinoline-6-carboxamide]
- IC50 [1, 3]: 0.8 nM
- IC50 [2]: 41 nM

SMILES: CC(C)Oc1cc2c(OC[C@H]3NC(=O)[C@@H]4C[C@H]34)nccc2cc1C(N)=O [Example 174, 1-{[(1S,2S,5R)-4-oxo-3-azabicyclo[3.1.0]hex-2-yl]methoxy}-7-(propan-2-yloxy)isoquinoline-6-carboxamide]
- IC50 [1, 3]: 3.1 nM
- IC50 [2]: 126 nM

SMILES: COc1cc2c(OC[C@@H]3C[C@](C)(F)C(=O)N3)nccc2cc1C(N)=O [Example 177, 1-{[(2S,4S)-4-fluoro-4-methyl-5-oxopyrrolidin-2-yl]methoxy}-7-methoxyisoquinoline-6-carboxamide]
- IC50 [1, 3]: 3.8 nM
- IC50 [2]: 43 nM

SMILES: CC(C)Oc1cc2c(OC[C@@H]3C[C@@H](O)C(=O)N3)nccc2cc1C(N)=O [Example 179, 1-{[(2S,4R)-4-hydroxy-5-oxopyrrolidin-2-yl]methoxy}-7-(propan-2-yloxy)isoquinoline-6-carboxamide]
- IC50 [1, 3]: 1.2 nM
- IC50 [2]: 199 nM

SMILES: CC(C)Oc1cc2c(OC[C@@H]3CCC(=O)N3C)nccc2cc1C(N)=O [Example 180, 1-{[(2S)-1-methyl-5-oxopyrrolidin-2-yl]methoxy}-7-(propan-2-yloxy)isoquinoline-6-carboxamide]
- IC50 [1, 3]: 1790 nM
- IC50 [2]: 2560 nM
